Reference: patent EP1304101A1, “Composition and method for use of pyridinium derivatives in cosmetic and therapeutic applications” (Torrent Pharmaceuticals Ltd, priority 2001, dated 2003)

Columns and labels:
AGE-BSA = target: T1, AGE-BSA (Bos taurus, UniProt P02769); experiment: In-vitro AGE breaking activity by ELISA (16 weeks AGE-BSA incubated with test compound); format: biochemical, bovine; conditions: for % Breakage: 37°C, 24 hours
T1 construct: Bovine serum albumin (fraction V) (BSA); from tissue
T1 sequence (P02769 25-607): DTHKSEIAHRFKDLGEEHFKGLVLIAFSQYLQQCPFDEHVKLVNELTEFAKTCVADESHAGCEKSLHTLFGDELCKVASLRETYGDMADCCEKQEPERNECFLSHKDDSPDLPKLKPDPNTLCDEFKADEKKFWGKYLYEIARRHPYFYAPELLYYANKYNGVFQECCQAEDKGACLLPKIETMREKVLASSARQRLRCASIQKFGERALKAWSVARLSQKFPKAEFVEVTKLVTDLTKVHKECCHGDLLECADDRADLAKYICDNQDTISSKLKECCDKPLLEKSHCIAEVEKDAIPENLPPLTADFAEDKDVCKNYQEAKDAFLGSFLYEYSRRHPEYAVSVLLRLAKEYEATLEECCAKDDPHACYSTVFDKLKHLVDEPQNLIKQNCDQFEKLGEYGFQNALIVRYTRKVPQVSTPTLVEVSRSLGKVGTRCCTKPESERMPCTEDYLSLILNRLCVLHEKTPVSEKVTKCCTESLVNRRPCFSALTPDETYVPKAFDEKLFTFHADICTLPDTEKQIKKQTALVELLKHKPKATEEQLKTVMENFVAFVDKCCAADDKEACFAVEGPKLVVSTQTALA
Protocol: AGE breaking activity has been confirmed by the screening procedure as mentioned below: • Materials: • Bovine serum albumin (fraction V) (BSA) • Glucose, analytical grade • Phosphate buffered saline (PBS) • Equipment: • Microplate ELISA Reader - Spectramax Plus (Molecular Devices, USA) • Microplate washer, (Bio -Tec Instruments, USA) • pH meter • Methods of experiment: Elisa (Enzyme Linked Immunosorbent Assay) 160 mg/ml of protein, bovine serum albumin, BSA and 1.6M glucose sugar were dissolved in phosphate buffered saline, PBS. Sodium azide was added at 0.02% concentration as a preservative. The solution was filtered asceptically through a 0.22 µM filter and kept for aging at 37°C for 16 weeks. After 16 weeks the solution was dialyzed against PBS, aliquoted and stored at - 20°C.
To determine the AGE breaking activity, 10 µg/ml of the 16 weeks AGE-BSA was incubated with different concentrations of the test compounds at 37°C for 24 hours and AGE breaking activity of the test compounds by ELISA was determined.
Different concentrations of 16 weeks AGE-BSA were coated on a microtitre plate as standard. Each concentration is coated in triplicates. • 2. The test samples were coated on microtitre plate at a concentration of 5 ng. to 20 ng per well in triplicates. • 3. The plate was incubated at 37°C for one hour. • 4. After incubation the plate was washed with PBST (PBS with 0.05% Tween 20). • 5. Blocking with 5% skimmed milk in PBS at 37°C for one hour was done. • 6. The plate was washed with PBST. • 7. Primary antibody against AGE-BSA was added and the plate is incubated at 37°C for one hour. • 8. The plate was washed with PBST • 9. Secondary antibody anti rabbit HRPO (Horse-Radish Per Oxidase) conjugate was added and the plate is incubated at 37°C for one hour. • 10. The plate was washed with PBST. • 11. Colour development with OPD (orthophenylenediamine dihydrochloride) and hydrogen peroxide was done. • 12. OD (optical density) at (450nm reading - 620nm reading) was measured after incubation at 37°C for 15 minutes with Microplate ELISA Reader.
The breaker activity of the compounds were determined by the following formula: % Breaker activity =(OD450-620 Control - OD450-620 Test)/(OD450-620 Control)x 100 [formula] OD450-620Control= Absorbance of 20ng AGE-BSA after incubation at 37°C for 24 hours without test compound OD450-620Test= Absorbance of 20ng AGE-BSA after incubation at 37°C for 24 hours with required concentration of test compound

[1] = Free radical scavenging activity on ABTS radical cation (absorbance at 730nm); format: biochemical
Protocol: This method measures the relative ability of free radical scavenging substances to scavenge the ABTS ^.+ i.e. 2,2-Azino-bis-(3-ethyl benzo thiazoline-6-sulfonate) radical cation as compared to a standard amount of standard or free radical scavengers antioxidants. Incubation of ABTS with Peroxidase (metmyoglobin) and hydrogen peroxide results in the production of radical cation ABTS^.+ . This species is blue- green in colour and can be detected at 730nm. Antioxidants or free radical scavengers in the added sample that causes suppression of the color to a degree that is proportional to their concentration.
• A. Phosphate Citrate Buffer (pH 5.0): 48.5ml of 0.1M citric acid with sufficient 0.2M disodium hydrogen phosphate to produce 100 ml. • B. Phosphate Buffer Saline (PBS): Dissolve 40.0g of NaCl, 1.0g of KCI, 1.0g of KH2PO4 and 3.05g of Na2HPO4 in 1 litre milli-Q water. Dilute 200ml of above solution to 1 litre with milli-Q water (pH 7.4-7.6). • C. 3µM stock solution of Peroxidase was prepared in phosphate buffer saline pH 7.4(PBS). • D. 1.08 mM stock solution of Hydrogen peroxide was prepared in phosphate buffer saline pH 7.4 (PBS).
1 tablet (10mg) was dissolved in phosphate citrate buffer (pH 5.0).
5.0ml of ABTS stock solution was diluted with PBS to 20 ml.
320 µg of the enzyme was dissolved in 2.5 ml of PBS.
12µl of Hydrogen Peroxide (30%w/v) was diluted to 100ml with PBS.
0.1mM of stock solution of the drug was prepared which was serially diluted in PBS to get solutions of different concentrations.
To 18ml of ABTS stock solution, 100µl of Horseradish Peroxidase stock solution was added.
As soon as 1.5 ml of hydrogen peroxide solution was added to the above solution, blue-green colour of the ABTS radicals appeared. This solution was incubated at 30°C for 30 min.
980µl of ABTS radical stock solution was added to an eppendorf tube. To it was added 100µl of various PBS solution.
980µl of ABTS radical stock solutions were added to different eppendorf tubes. To it were added 100µl of various concentrations of drug solution.
The absorbance of control and test samples was recorded immediately at 730nm taking PBS as blank.
Calculation: The percent antioxidant activity was calculated according to the formula: % Antioxidant activity = [O.D of test sample/O.D of control*100]-100.

[2] = comparison in words based on Table 2

| SMILES | % Breakage (AGE-BSA; 10 mM test compound) [%] | Relative Free Radical Scavenging Activity(%) on ABTS ([1]; 11.5µM) [%] | Relative Free Radical Scavenging Activity(%) on ABTS ([1]; 23.0µM) [%] | Relative Free Radical Scavenging Activity(%) on ABTS ([1]; 46.0µM) [%] | Relative Free Radical Scavenging Activity(%) on ABTS ([1]; 92.5µM) [%] | Relative Free Radical Scavenging Activity(%) on ABTS ([1]; 925µM) [%] | other results |
| --- | --- | --- | --- | --- | --- | --- | --- |
| Cc1ccc(C(=O)C[n+]2cccc(C(=O)NNC(=O)c3ccc[n+](CC(=O)c4ccc(C)s4)c3)c2)s1 [Compound 58, N, N'-bis [3-carbonyl-1-(2-(5-methylthien-2-yl)-2-oxoethyl)pyridinium] hydrazine dichloride] | 81.95 |  |  |  |  |  |  |
| CS(=O)(=O)NNC(=O)c1cc(Br)c[n+](CC(=O)c2cccs2)c1 [Compound 53, 1-(2-thien-2'-yl-2-oxoethyl)-3-(methanesulfonyl hydrazinocarbonyl)-5-bromo pyridinium bromide] |  |  |  |  |  |  | % Breakage (AGE-BSA; 2.5 mM test compound): 29.36% |
| Cc1ccc(S(=O)(=O)NNC(=O)c2ccc[n+](CC(=O)Nc3ccccc3)c2)cc1.[Cl-] [Compound 27, 1-(2-phenylamino-2-oxoethyl)-3-((4-methylphenyl)sulfonyl hydrazinocarbonyl) pyridinium chloride] |  | 43.9 | 55.5 | 75.3 | 99.6 | 100 |  |
| CC(=O)OCCOC(=O)c1ccc[n+](CC(=O)c2ccccc2)c1.[Br-] [Compound 16, 1-(2-phenyl-2-oxoethyl) -3-(2-(acetoxy)ethyloxycarbonyl) pyridinium bromide] | 16 |  |  |  |  |  |  |
| O=C(NNC(=O)c1ccc[n+](CC(=O)c2ccco2)c1)c1ccc[n+](CC(=O)c2ccco2)c1 [Compound 32, N, N' - bis [3-carbonyl-1-(2-furan-2'-yl-2-oxoethyl)pyridinium] hydrazine dibromide] | 14 |  |  |  |  |  |  |
| O=C(NNC(=O)c1cccnc1Cl)c1ccc[n+](CC(=O)c2cccs2)c1 [Compound 42, 1-(2-thien-2'yl-2-oxoethyl)-3-(2-(2-chloro-3-pyridoyl)hydrazinocarbonyl) -pyridinium chloride] | 12.51 |  |  |  |  |  |  |
| CCOC(=O)C1CSCN1C(=O)C[n+]1cccc(C(=O)NNS(C)(=O)=O)c1.[Cl-] (stereo not shown) [Compound 61, 1-(2-(4-carboethoxy-thiazolidin-3-yl)-2-oxoethyl) -3-(methanesulfonyl hydrazinocarbonyl) pyridinium chloride] | 25.06 |  |  |  |  |  |  |
| O=C(NCCOC(=O)c1ccccc1)c1ccc[n+](CC(=O)c2ccc(Cl)cc2Cl)c1.[Br-] [Compound 8, 1-(2-(2',4'-dichlorophenyl) -2-oxoethyl) -3-(2-(benzoyloxy)ethylamino-carbonyl) pyridinium bromide] |  | 40.8 | 53.7 | 72.6 | 81.2 | 100 |  |
| Cc1ccc(C(=O)NNC(=O)c2ccc[n+](CC(=O)c3cccs3)c2)c[n+]1CC(=O)c1cccs1 [Compound 49, 1-[1-(2-thien-2'-yl-2-oxoethyl)-6-methyl-3-carbonylpyridinium]-2-[1-(2-Thien-2' -yl-2-oxoethyl)-3-carbonylpyridinium] hydrazine dichloride] |  |  |  |  |  |  | % Breakage (AGE-BSA; 2.5 mM test compound): 85.67%; AGE breaking activity compared to PTB (AGE-BSA; [2]): superior; potency (AGE breaking activity compared to PTB) (AGE-BSA; [2]): significantly much higher |
| O=C(C[n+]1cccc(C(=O)NCCOC(=O)c2ccccc2)c1)Nc1ccccc1.[Cl-] [Compound 23, 1-(2-phenylamino-2-oxoethyl)-3-((benzoyloxy)ethylaminocarbonyl) pyridinium chloride] | 37 |  |  |  |  |  | % Breakage (AGE-BSA; 25 mM test compound): 90%; AGE breaking activity compared to PTB (AGE-BSA; [2]): superior |
| O=C1CCCC(CCNNC(=O)c2ccc[n+](CC(=O)Nc3ccccc3)c2)C1.[Br-] (stereo not shown) [Compound 35, 1-(2-phenylamino-2-oxoethyl)-3-({2-(1-oxo-3-cyclohexyl)-ethyl} -hydrazinocarbonyl}-pyridinium bromide] |  | 50.5 | 63.4 | 80.9 | 90.6 | 100 |  |
| O=C(NCCOC(=O)c1ccccc1)c1ccc[n+](CC(=O)c2cccs2)c1.[Br-] [Compound 36, 1-(2-thien-2'-yl-2-oxoethyl)-3-[2-(benzoyloxy)ethylaminocarbonyl]-pyridinium bromide] |  | 27.6 | 59.2 | 74.2 | 83.9 | 100 |  |
| O=C(NCCOC(=O)c1ccccc1)c1cc[n+](CC(=O)c2cccs2)cc1.[Br-] [Compound 18, 1-(2-thien-2'-yl-2-oxoethyl)-4-(2-(benzoyloxy)ethylaminocarbonyl) pyridinium bromide] |  | 41.8 | 59.5 | 75.2 | 91.0 | 100 |  |
| O=C=Nc1ccc[n+](CC(=O)c2ccc(Cl)cc2Cl)c1.[Br-] [Compound 82, 3-Carbonylamino-1-(2-(2,4-dichlorophenyl)-2-oxoethyl)-pyridinium bromide] |  | 26.0 | 44.3 | 62.7 | 75.5 | 100 |  |
| CCCCNC(=O)c1ccc[n+](CC(=O)c2ccc(Cl)cc2Cl)c1.[Br-] [Compound 97, 1-(2 - (2, 4 - Dichlorophenyl) - 2-oxoethyl) - 3-(n-butylamino-carbonyl) pyridinium bromide] |  | 16.5 | 27 | 37.8 | 44.5 | 97.8 |  |
| O=C(C[n+]1cccc(C(=O)NCCO)c1)Nc1ccccc1.[Cl-] [Compound 95, 1-(2- Phenylamino - 2-oxoethyl)-3-((2-hydroxyethyl)aminocarbonyl) - pyridinium chloride] |  |  |  |  |  |  | % Breakage (AGE-BSA; 20 mM test compound): 48% |
| COCCNC(=O)c1ccc[n+](CC(=O)NC2CC2)c1.[Cl-] [Compound 40, 1-(2-cyclopropylamino-2-oxoethyl)-3-(2-methoxyethylaminocarbonyl)-pyridinium chloride] | 12.38 |  |  |  |  |  |  |
| O=C(C[n+]1cccc(C(=O)c2ccccc2)c1)c1ccccc1.[Br-] [Compound 98, 1-(2-Phenyl-2-oxoethyl)-3-(1-phenyl-1-oxomethyl) pyridinium bromide] |  | 7.1 | 26.9 | 51.1 | 78.6 | 99.1 |  |
| CCCCNC(=O)c1ccc[n+](CC(=O)Nc2ccccc2)c1.[Cl-] [Compound 94, 1-(2-Phenylamino - 2-oxoethyl) - 3 - (n-butylaminocarbonyl) pyridinium chloride] | 27 |  |  |  |  |  |  |
| O=C(C[n+]1cccc(C(=O)NNS(=O)(=O)Cc2ccccc2)c1)c1ccccc1.[Br-] [Compound 31, 1-(2-phenyl-2-oxoethyl)-3-((phenylmethyl)sulfonyl hydrazinocarbonyl) pyridinium bromide] |  | 41.6 | 57.7 | 66.9 | 99.2 | 100 |  |
| NC(=O)c1cccnc1 [Niacinamide, reference compound] |  | 0.0 | 2.2 | 3.8 | 3.8 | 9.2 |  |
| O=C(CCC1CCCCC1)NNC(=O)c1ccc[n+](CC(=O)c2cccs2)c1.[Br-] [Compound 34, 1-(2-thien-2'-yl-2-oxoethyl)-3-((2-(1-oxo-3-cyclohexyl)-ethyl)-hydrazinocarbonyl)-pyridinium bromide] |  | 50.3 | 53.8 | 65.4 | 80.4 | 100 |  |
